Measurements published in patent US20230346743A1, “COMBINATION CANCER THERAPIES” (The Board of Regents of the University of Oklahoma, priority 2018, published 2023).

Assays:
Mycobacterium bovis BCG = conditions: Table of Brown et al., 2004; cited from earlier work
[1] = Toxicity in the MESOV mouse model (body weight, ascites, kidney and liver histology); assay type: in vivo
Protocol: (§1) Four-week-old female athymic nude mice (NCr-Foxn1^nu) were obtained from Taconic Biosciences under an approved Institutional Animal Care and Use Committee (IACUC) protocol. Mice were acclimatized for two weeks, fed with a standard diet and ear tagged during the acclimatization period. The timing to tumor development after intraperitoneal injection with various amounts of MESOV cells was determined in a pilot study prior. In the intervention experiment, 6-week-old mice were injected with 20 million MESOV human ovarian cancer cells in their intraperitoneal region. Drug treatment was initiated 4 weeks after the injection of cancer cells. Mice were randomized to four treatment groups before the start of treatment based on their body weight. There was no significant (one-way ANOVA, p >0.999) difference in body weight between groups at the start of treatment. Twelve mice were allocated to each group based on the power analysis performed while designing experiment. The sample size was determined to provide over 80% power to detect a 915 mm^3 difference in tumor volume between PRIMA-1^MET treatment alone and the drug combination treatment using a two-sided 0.05 level t-test. SHetA2 was administered by gavage at 60 mg/kg in 30% Kolliphor HS15 (Sigma). Controls were gavaged with Kolliphor HS15 (30% in water). PRIMA-1^MET (10 mg/kg) was dissolved in phosphate buffered saline and injected into the peritoneum of mice every other day. Initially SHetA2 dosing was administered every day for two weeks in SHetA2 alone and drug combination groups, and then switched to every other day for the next three weeks due to the stress caused to the mice by daily gavage. Oral gavaging was performed with sterile disposable plastic feeding tubes 20 ga × 38 mm (Instech Laboratories, Inc., Plymouth Meeting, PA, USA). Three mice in the drug combination group died after two weeks of drug treatment due to gavaging incidents. Body weights were recorded and animal health was monitored weekly. After the end of drug intervention period, all mice were euthanized by CO2 asphyxiation followed by exsanguination, their tumors and other vital organs were collected for further analysis. After measuring the total tumor weight, a portion of the tumors were snap frozen in liquid nitrogen and another portion was formalin fixed. The formalin fixed tissue samples were paraffin embedded, sectioned and stained with hematoxylin and eosins for histology studies. An experienced pathologist reviewed blinded histology slides for kidney and liver toxicity.

R282W m-p53 = test: P53 luciferase reporter assay in MESOV cells; assay type: cell-based, human; conditions: 60 µM PRIMA-1^MET, 24 h
Protocol: To determine the transcriptional activity of p53, MESOV cells were transfected with PG13-Luc plasmids. Approximately 5,000 transfected cells were seeded on to each well of 96-well plate and incubated overnight. These cells were treated with either control solvent, 5 µM SHetA2 or 60 µM PRIMA-1^MET for 24 h. Luciferase activity of the reporter was measured with the One-glo luciferase reporter assay kit (Promega, Madison, WI, USA) and a Biotek Synergy H1 plate reader (BioteK, Winooski, VT, USA). The MTT assay was performed in parallel cultures and used to normalize the p53 reporter activity to the amount of viable cells.

[2] = infusion in cancer patients; cited from earlier work
[3] = tested on: MESOV human ovarian cancer cells; test: Tumor establishment after intraperitoneal injection of MESOV cells (secondary chemoprevention model); assay type: in vivo; conditions: nu/nu mice, MESOV i.p.
Protocol: as §1, with “The sample size was determined to provide over 80% power to detect a 915 mm^3 difference in tumor volume between PRIMA-1^MET treatment alone and the drug combination treatment using a two-sided 0.05 level t-test. SHetA2 was administered by gavage at 60 mg/kg in 30% Kolliphor HS15 (Sigma).” left out, “PRIMA-1^MET” left out, “toxicity. Presence or absence of tumor at the end of the treatment period was used as the primary outcome measure. […] Two by two logistic regression was used to compare the four treatment groups (Untreated control, SHetA2, […] combination) in the study. Mice in the first 3 groups had complete data, while 3 mice in the combo group died early and had zero tumor weights. […]” for “toxicity.”

p21 = test: Western blots of p21 in ovarian cancer cell lines; assay type: cell-based, human; conditions: A2780, SKOV3, SKOV3 R273H, SKOV3 R248W
Protocol: Proteins were extracted from cell cultures using M-PER mammalian protein extraction reagent (ThermoFisher, Waltham, MA, USA) and volumes corresponding to 30 µg determined with BCA reagent (ThermoFisher, Waltham, MA, USA) were electrophoresed into a SDS-PAGE gel and transferred to PVDF membranes. Membranes were blocked (5% dry skim milk powder in TBST buffer) for at least 1 h or overnight, washed thrice with TBST and then incubated with primary antibody: p53 DO-1, β-actin, histone H3, GAPDH (Santa Cruz Biotechnology, Dallas, TX, USA) and mortalin, Tom20, V5 tag antibodies, p21, PARP, SLC7A11, caspase 3 (Cell Signaling Technology, Danvers, MA, USA) for at least 1 h or overnight. After three washes, membranes were incubated with anti-mouse HRP conjugated (Santa Cruz Biotechnology, Dallas, TX, USA) or anti-Rabbit HRP conjugated (Cell Signaling Technology, Danvers, MA, USA) for 40 min. Membranes then were washed and developed with ECL reagents (BioRad, Hercules, CA, USA). Bands were imaged and quantified (ChemiDoc imaging system with Image Lab Software/BioRad).

TP21 gene = test: qRT-PCR of TP21 in SKOV3 cells; assay type: cell-based, human; conditions: SKOV3 parental (p53 null) and R273H m-p53 cells; SHetA2 10 µM, PRIMA-1 20 µM, 16 h
SKOV3 R273H = test: MTT cytotoxicity assay; assay type: cell-based; conditions: Homo sapiens, SK-OV-3; SKOV3 permanently transfected with R273H m-p53, MTT
Protocol: Cells plated at 2000 cells/well in 96 well microtiter plates were incubated for 36-48 h and treated with a range of doses and combinations of SHetA2 and PRIMA-1 or PRIMA-1^MET, or the same volume of DMSO solvent for 72 h of incubation. The percentage of growth for single drug treatments or fold effect (1 - ratio of treated/untreated growth) was measured using the CellTiter 96 AQueous Non-Radioactive Cell Proliferation Assay (Promega, Madison, WI, USA) and the BioTeK SYNERGY H1 (BioTeK, Winooski, VT, USA). Each experiment was performed in triplicate and repeated 2-3 times.
The potencies (IC50′s) of SHetA2 or PRIMA-1 were determined using GraphPad Prism 6 software analysis of average MTT Optical Density vs drug dose. […] Single drug treatments at doses surrounding the IC50 values were evaluated parallel. All treatments were performed in triplicate and averages used to draw isobolograms and calculate combination indices (CI) and dose-reduction indices (DRIs) using CompuSyn Software according to the Chou and Talalay method (op cit). All experiments were repeated at least twice for each cell line to confirm results.

parental SKOV-3 cells = test: MTT cytotoxicity assay; assay type: cell-based, human; conditions: parental SKOV-3 p53 null cells
Cervical Cancer = test: Dose reduction index at various fold effects in cervical cancer; assay type: cell-based, human; set-up: Palbociclib Dose: unit not given beside the values; conditions: cell line not named
Excerpt: Combination Indices (CI's) were derived to determine the level of synergy using the Chow and Talalay method. […] The Dose Reduction Indices (DRIs) were derived to determine the level of reduction for one drug that could be allowed by addition of the second drug at various fold effects (Fas) of the combination treatment (Table 16).

Row | SMILES | range (Mycobacterium bovis BCG) | also measured
1 | CC(=C/C=N/NC(N)=S)/C=C/c1ccc2c(c1)C(C)CC(C)(C)N2C (stereo not shown) | 10.0-20.0 | –
2 | COC(=O)c1ccc(C(=O)Oc2ccc3c(c2)OC(C)(C)C=C3C)cc1 | 2.0-4.0 | –
3 | CCOC(=O)c1ccc(NC(=O)Nc2cccc3c2OC(C)(C)CC3(C)C)cc1 | 20.0-40.0 | –
4 | CCOC(=O)c1ccc(NC(=O)Nc2ccc3c(c2)C(C)=CC(C)(C)N3C)cc1 | 20.0-40.0 | –
5 | CC1=CC(C)(C)N(C)c2ccc(NC(=S)Nc3ccc([N+](=O)[O-])cc3)cc21 | 20.0-40.0 | –
6 | CC1(C)CC(C)(C)c2cc(NC(=S)Nc3ccc([N+](=O)[O-])cc3)ccc2O1 | 20.0-40.0 | –
7 | COc1ccc2c(c1NC(=S)Nc1ccc([N+](=O)[O-])cc1)C(C)(C)COC2(C)C | 20.0-40.0 | –
8 | COc1ccc2c(c1NC(=S)NC(=O)c1ccc([N+](=O)[O-])cc1)C(C)(C)COC2(C)C | 20.0-40.0 | –
9 | CCOC(=O)c1ccc(NC(=O)Nc2ccc3c(c2)C(C)(C)CC(C)(C)O3)cc1 | 20.0-40.0 | –
10 | COCC1(CO)C(=O)C2CCN1CC2 (stereo not shown) [PRIMA-1^MET, 2-(hydroxymethyl)-2-(methoxymethyl)-1-azabicyclo [2.2.2]octan-3-one] | – | Kidney or liver toxicity (H & E histology) ([1]; mouse, in vivo, ip): did not cause kidney or liver toxicity; Average body weights compared with mock group ([1]; nu/nu mice, MESOV i.p.): significantly higher than the mock group; Effects on body weight or ascites (abdominal size) ([1]; nu/nu mice, MESOV i.p.): no significant effects on body weight or ascites; p53 transcriptional activity (PG13-Luc reporter) (R282W m-p53): reactivation of R282W m-p53 in MESOV was observed; Clinical safety [2]: relatively safe with fully reversible central nervous system-related side effects; OR for preventing tumor development (additive logistic regression model) [3]: 4.464; Tumor-free rates ([3]; SHetA2 60 mg/kg gavage, PRIMA-1^MET 10 mg/kg i.p., treatment from day 28 for 38 days): 25%
11 | CCOC(=O)c1ccc(NC(=O)Nc2ccc3c(c2)C(C)(C)CC(C)(C)S3)cc1 | 20.0-40.0 | –
12 | CCOC(=O)c1ccc(NC(=S)Nc2ccc3c(c2)C(C)(C)CC(C)(C)O3)cc1 | 5.0-10.0 | –
13 | CCOC(=O)c1ccc(NC(=S)Nc2cccc3c2OC(C)(C)CC3(C)C)cc1 | 20.0-40.0 | –
14 | CC(C)CCOc1ccc(NC(=S)Nc2ccc(OCCC(C)C)cc2)cc1 | 0.5-1.0 | –
15 | CCOC(=O)c1ccc(NC(=S)Nc2ccc3c(c2)C(C)=CC(C)(C)N3C)cc1 | 20.0-40.0 | –
16 | O=C1C2CCN(CC2)C1(CO)CO [PRIMA-1, 2,2-Bishydroxymethyl-1-azabicyclo[2.2.2]octan-3-one, reference compound] | – | p21 protein (Western blot) (p21): only induced p21 protein expression in A2780 (wt p53); TP21 transcription (qRT-PCR) (TP21 gene): did not induce TP21 transcription; IC50 (SKOV3 R273H): 40 µM; PRIMA-1 sensitivity (parental SKOV-3 cells): resistant
17 | CCOC(=O)c1ccc(NC(=S)Nc2ccc3c(c2)C(C)(C)CC(C)(C)S3)cc1 | 20.0-40.0 | –
18 | CC(=O)c1c(C)c2cnc(Nc3ccc(N4CCNCC4)cn3)nc2n(C2CCCC2)c1=O [Palbociclib, reference compound] | – | Palbociclib Dose (Cervical Cancer; Fold Effect (Fa) 0.05): 7.16; Palbociclib Dose (Cervical Cancer; Fold Effect (Fa) 0.75): 24.03; Palbociclib Dose (Cervical Cancer; Fold Effect (Fa) 0.90): 80.72; Palbociclib Dose (Cervical Cancer; Fold Effect (Fa) 0.95): 184.00
19 | CC1(C)CC(C)(C)c2cccc(NC(=S)Nc3ccc([N+](=O)[O-])cc3)c2O1 | 20.0-40.0 | –
